{"source": "patent US11844795B2", "about": "“Combination therapy for cancer treatment” (Ipsen Biopharm Ltd., priority 2015, dated 2023)", "key": {"PARP 1": {"target": "PARP 1 (Homo sapiens, UniProt P09874)", "sequence (P09874 whole entry, species assumed)": "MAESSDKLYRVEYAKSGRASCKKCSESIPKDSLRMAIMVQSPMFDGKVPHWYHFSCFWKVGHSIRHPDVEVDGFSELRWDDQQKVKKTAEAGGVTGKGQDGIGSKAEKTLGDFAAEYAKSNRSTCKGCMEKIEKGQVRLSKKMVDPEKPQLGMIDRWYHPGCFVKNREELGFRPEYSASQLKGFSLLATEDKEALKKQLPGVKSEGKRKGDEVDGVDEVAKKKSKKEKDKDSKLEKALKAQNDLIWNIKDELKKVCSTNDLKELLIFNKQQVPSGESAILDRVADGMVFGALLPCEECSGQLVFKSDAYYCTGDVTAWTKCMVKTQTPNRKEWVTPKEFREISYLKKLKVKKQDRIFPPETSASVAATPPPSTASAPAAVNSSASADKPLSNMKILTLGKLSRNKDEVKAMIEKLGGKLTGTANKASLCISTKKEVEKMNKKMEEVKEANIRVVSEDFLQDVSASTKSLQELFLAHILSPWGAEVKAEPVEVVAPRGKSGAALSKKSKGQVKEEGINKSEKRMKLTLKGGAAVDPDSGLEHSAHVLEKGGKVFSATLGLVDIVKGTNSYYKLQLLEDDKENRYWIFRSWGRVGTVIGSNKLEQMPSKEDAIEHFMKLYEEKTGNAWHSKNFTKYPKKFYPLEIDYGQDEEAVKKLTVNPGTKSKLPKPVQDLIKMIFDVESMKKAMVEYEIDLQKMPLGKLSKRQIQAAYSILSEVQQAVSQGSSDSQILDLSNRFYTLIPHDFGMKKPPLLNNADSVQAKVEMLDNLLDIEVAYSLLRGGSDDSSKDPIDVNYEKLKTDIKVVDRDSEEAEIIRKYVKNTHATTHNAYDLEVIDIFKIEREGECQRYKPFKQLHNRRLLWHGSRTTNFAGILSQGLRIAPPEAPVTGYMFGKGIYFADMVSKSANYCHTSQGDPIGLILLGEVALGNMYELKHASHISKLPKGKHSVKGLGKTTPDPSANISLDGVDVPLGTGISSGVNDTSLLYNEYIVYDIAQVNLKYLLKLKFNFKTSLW", "settings": "cell-free assay; cited from earlier work"}, "BT20": {"tested_on": "BT20", "assay": "Cell survival (CellTiter-Glo) after SN-38 and/or PARP inhibitor", "format": "cell-based", "settings": "for IC50: Homo sapiens", "method": "(§1) Cells were plated at 1000 cells/well and then incubated for 24 hours. […] The plates were then allowed to incubate for 72 hours period. After the 72 hour incubation period the media was removed and cell viability was determined using the CellTiter-Glo® cell viability assay (Promega, Madison Wis.) according to the product instructions."}, "BT549": {"tested_on": "BT549", "assay": "Cell survival (CellTiter-Glo) after SN-38 and/or PARP inhibitor", "format": "cell-based", "settings": "for IC50: Homo sapiens", "method": "as §1"}, "HCC1187": {"tested_on": "HCC1187", "assay": "Cell survival (CellTiter-Glo) after SN-38 and/or PARP inhibitor", "format": "cell-based", "settings": "for IC50: Homo sapiens", "method": "as §1"}, "HCC1806": {"tested_on": "HCC1806", "assay": "Cell survival (CellTiter-Glo) after SN-38 and/or PARP inhibitor", "format": "cell-based", "settings": "Exp. 1, single agent", "method": "as §1"}, "HCC38": {"tested_on": "HCC38", "assay": "Cell survival (CellTiter-Glo) after SN-38 and/or PARP inhibitor", "format": "cell-based", "settings": "HCC38, Exp. 1, single agent", "method": "as §1"}, "SUM159PT": {"tested_on": "SUM159PT", "assay": "Cell survival (CellTiter-Glo) after SN-38 and/or PARP inhibitor", "format": "cell-based", "settings": "for IC50: Homo sapiens, SUM-159-PT", "method": "as §1"}, "PARP-DNA complexes": {"tested_on": "PARP-DNA complexes", "settings": "compared with veliparib; cited from earlier work"}, "[1]": {"tested_on": "DMS-114 small cell lung cancer cells", "assay": "% cell number over time, SN-38 with PARP inhibitors", "format": "cell-based", "settings": "SN-38 at 2 nM; DMS-114 SCLC cells"}, "[2]": {"tested_on": "NCI-H1048 small cell lung cancer cells", "assay": "% cell number over time, SN-38 with PARP inhibitors", "format": "cell-based", "settings": "SN-38 at 2 nM; NCI-H1048 SCLC cells"}, "[3]": {"tested_on": "CFPAC-1 pancreatic cancer cells", "assay": "% cell number over time, SN-38 with PARP inhibitors", "format": "cell-based", "settings": "SN-38 at 2 nM"}, "[4]": {"tested_on": "small cell lung cancer (SCLC), pancreatic cancer and breast cancer cell lines", "assay": "Growth inhibition, SN-38 with PARP inhibitors", "format": "cell-based", "settings": "2 nM SN-38"}, "SUM149PT": {"tested_on": "SUM149PT", "assay": "Cell survival (CellTiter-Glo) after SN-38 and/or PARP inhibitor", "format": "cell-based", "settings": "Homo sapiens, read-out: IC50 log10 (μM) (converted)", "method": "as §1"}, "tankyrase-1": {"target": "tankyrase-1 (Homo sapiens, UniProt O95271)", "sequence (O95271 whole entry, species assumed)": "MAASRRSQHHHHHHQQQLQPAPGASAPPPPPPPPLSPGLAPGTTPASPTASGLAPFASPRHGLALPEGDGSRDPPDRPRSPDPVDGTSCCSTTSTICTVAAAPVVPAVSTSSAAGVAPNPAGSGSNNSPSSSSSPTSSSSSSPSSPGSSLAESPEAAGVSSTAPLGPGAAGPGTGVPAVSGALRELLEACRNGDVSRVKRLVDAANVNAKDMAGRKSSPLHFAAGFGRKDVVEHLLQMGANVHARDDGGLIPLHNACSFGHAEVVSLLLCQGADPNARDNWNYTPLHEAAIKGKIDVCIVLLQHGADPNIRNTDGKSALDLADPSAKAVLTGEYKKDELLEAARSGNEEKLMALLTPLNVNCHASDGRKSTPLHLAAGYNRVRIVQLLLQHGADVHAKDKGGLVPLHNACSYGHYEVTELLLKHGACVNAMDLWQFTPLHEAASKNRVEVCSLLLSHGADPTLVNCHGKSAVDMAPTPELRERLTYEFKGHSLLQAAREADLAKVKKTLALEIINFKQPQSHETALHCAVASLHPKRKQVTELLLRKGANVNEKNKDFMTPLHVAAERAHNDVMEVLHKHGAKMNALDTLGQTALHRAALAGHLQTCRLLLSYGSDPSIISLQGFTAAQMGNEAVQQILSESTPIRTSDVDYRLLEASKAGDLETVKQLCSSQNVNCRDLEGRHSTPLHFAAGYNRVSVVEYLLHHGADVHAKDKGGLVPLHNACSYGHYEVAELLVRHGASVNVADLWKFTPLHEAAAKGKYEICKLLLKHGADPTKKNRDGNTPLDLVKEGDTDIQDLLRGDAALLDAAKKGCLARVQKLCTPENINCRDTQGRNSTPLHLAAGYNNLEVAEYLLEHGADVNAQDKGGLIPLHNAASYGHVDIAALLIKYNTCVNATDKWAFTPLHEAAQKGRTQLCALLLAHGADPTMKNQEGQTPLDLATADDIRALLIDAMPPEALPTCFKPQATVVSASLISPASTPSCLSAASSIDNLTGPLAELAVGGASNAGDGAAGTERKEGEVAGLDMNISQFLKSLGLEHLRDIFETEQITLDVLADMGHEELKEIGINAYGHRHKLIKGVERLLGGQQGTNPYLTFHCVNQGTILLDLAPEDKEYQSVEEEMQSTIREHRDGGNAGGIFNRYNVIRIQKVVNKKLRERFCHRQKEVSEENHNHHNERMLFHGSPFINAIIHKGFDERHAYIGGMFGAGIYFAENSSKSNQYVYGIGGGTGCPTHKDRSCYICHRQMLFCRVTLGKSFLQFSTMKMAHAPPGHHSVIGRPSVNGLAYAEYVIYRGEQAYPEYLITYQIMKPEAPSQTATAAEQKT", "settings": "cell-free assays; cited from earlier work"}, "PAR": {"tested_on": "PAR", "settings": "Table 2B, unit inferred; cited from earlier work"}, "[5]": {"settings": "Homo sapiens, read-out: IC50 log10 (converted)"}}, "note": "Read-outs that look alike come from different tables or passages of the source.", "data": [{"compound": "CN(C)Cc1ccc(-c2nc3cccc4c3n2CCNC4=O)cc1", "note": "[AG-14361]", "values": [{"measurement": "Ki", "setting": "PARP 1", "result": "< 0.005", "unit": "µM"}]}, {"compound": "NC(=O)c1cccc2cn(-c3ccc([C@@H]4CCCNC4)cc3)nc12", "note": "[Niraparib]", "values": [{"measurement": "Maximum Kill Percent", "setting": "BT20; BT20, Exp. 1, single agent", "result": 100, "unit": "%"}, {"measurement": "IC50", "setting": "BT20; BT-20, BT20, Exp. 1, single agent, read-out: IC50 log10 (converted)", "result": 138, "unit": "µM"}, {"measurement": "Maximum Kill Percent", "setting": "BT549; BT549, Exp. 1, single agent", "result": 100, "unit": "%"}, {"measurement": "IC50", "setting": "BT549; BT-549, BT549, Exp. 1, single agent, read-out: IC50 log10 (converted)", "result": 107, "unit": "µM"}, {"measurement": "Maximum Kill Percent", "setting": "HCC1187; HCC1187, Exp. 1, single agent", "result": 98, "unit": "%"}, {"measurement": "IC50", "setting": "HCC1187; HCC1187, Exp. 1, single agent, read-out: IC50 log10 (converted)", "result": 129, "unit": "µM"}, {"measurement": "Maximum Kill Percent", "setting": "HCC1806", "result": 100, "unit": "%"}, {"measurement": "IC50", "setting": "HCC1806; [5]", "result": 18.6, "unit": "µM"}, {"measurement": "Maximum Kill Percent", "setting": "HCC38", "result": 100, "unit": "%"}, {"measurement": "IC50", "setting": "HCC38; [5]", "result": 17, "unit": "µM"}, {"measurement": "IC50", "setting": "SUM159PT; SUM159PT, Exp. 1, single agent, read-out: IC50 log10 (converted)", "result": 2.24, "unit": "µM"}, {"measurement": "Maximum Kill Percent", "setting": "SUM159PT; SUM159PT, Exp. 1, single agent", "result": 97, "unit": "%"}, {"measurement": "potency at PARP trapping", "setting": "PARP-DNA complexes", "result": "much more potent at PARP trapping than veliparib"}]}, {"compound": "O=C(c1cc(Cc2n[nH]c(=O)c3ccccc23)ccc1F)N1CCN(C(=O)C2CC2)CC1", "note": "[Olaparib]", "values": [{"measurement": "Estimated tumor range", "setting": "Estimated tumor range", "result": 8, "unit": "µM"}, {"measurement": "effect of combination with SN-38", "setting": "[1]", "result": "Additive/synergistic effects"}, {"measurement": "sensitivity of cells to combination with SN-38", "setting": "[2]", "result": "very sensitive"}, {"measurement": "effect of combination with SN-38", "setting": "[3]", "result": "Additive/synergistic effects"}, {"measurement": "growth inhibition of the cancer cells in combination with SN-38", "setting": "[4]", "result": "additive/synergistic growth inhibition"}, {"measurement": "IC50", "setting": "BT20; BT-20, read-out: IC50 log10 (μM) (converted)", "result": 17.4, "unit": "µM"}, {"measurement": "IC50", "setting": "BT549; BT-549, read-out: IC50 log10 (μM) (converted)", "result": 110, "unit": "µM"}, {"measurement": "IC50", "setting": "HCC1187; HCC1187, read-out: IC50 log10 (μM) (converted)", "result": 257, "unit": "µM"}, {"measurement": "IC50", "setting": "SUM149PT", "result": 251, "unit": "µM"}, {"measurement": "IC50", "setting": "SUM159PT; read-out: IC50 log10 (μM) (converted)", "result": 1.51, "unit": "µM"}, {"measurement": "less effective against tankyrase-1 than against PARP 1/2", "setting": "tankyrase-1", "result": 300, "unit": "times"}, {"measurement": "EC50", "setting": "PAR", "result": 0.0036, "unit": "µM"}]}]}
